In PMC2270722, “Influence of Cocoa Flavanols and Procyanidins on Free Radical-induced Human Erythrocyte Hemolysis” (Clinical and Developmental Immunology, 2005):

What was measured:
human erythrocytes = assay: in vitro AAPH-induced erythrocyte hemolysis, percent inhibition by purified flavonoids; type: cell-based; design: level of protection compared with ascorbic acid: dose or concentration left out as unconfirmed; conditions: for level of protection compared with ascorbic acid: Figure 3; for protection of human erythrocytes from free radical-induced hemolysis at lowest concentration: concentration as low as 2.5 mM; for protection against AAPH-induced erythrocyte hemolysis: concentrations 2.5 to 20 μM, 200 mM AAPH, 3 h
From the text: (§1) Influence of cocoa flavanols and procyanidins on free radical-induced human erythrocyte hemolysis QIN YAN ZHU1 , DEREK D. SCHRAMM1 , HEIDRUN B. GROSS1 , ROBERTA R. HOLT1 , SUN H. KIM3 , TOMOKO YAMAGUCHI4 , CATHERINE L. KWIK-URIBE5 , & CARL L. KEEN1,2 1 Department of Nutrition, University of California, One Shields Avenue, Davis, CA 95616-8669, 2 Internal Medicine, University of California, One Shields Avenue, Davis, CA 95616-8669, 3 Department of Food Service Management and Nutrition, Kongju National University, Republic of Korea, 4 Department of Food Science and Nutrition, Nara Women's University, Japan, and 5 Analytical & Applied Sciences, Mars Incorporated, Hackettstown, NJ, USA Abstract Cocoa can be a rich source of antioxidants including the flavan-3-ols, epicatechin and catechin, and their oligomers (procyanidins). While these flavonoids have been reported to reduce the rate of free radical-induced erythrocyte hemolysis in experimental animal models, little is known about their effect on human erythrocyte hemolysis. The major objective of this work was to study the effect of a flavonoid-rich cocoa beverage on the resistance of human erythrocytes to oxidative stress. A second objective was to assess the effects of select purified cocoa flavonoids, epicatechin, catechin, the procyanidin Dimer B2 and one of its major metabolites, 30 -O-methyl epicatechin, on free radical-induced erythrocyte hemolysis in vitro. Peripheral blood was obtained from 8 healthy subjects before and 1, 2, 4 and 8 h after consuming a flavonoid-rich cocoa beverage that provided 0.25 g/kg body weight (BW), 0.375 or 0.50 g/kg BW of cocoa. Plasma flavanol and dimer concentrations were determined for each subject. Erythrocyte hemolysis was evaluated using a controlled peroxidation reaction. Epicatechin, catechin, 30 -O-methyl epicatechin and (-)-epicatechin-(4b . 8)-epicatechin (Dimer B2) were detected in the plasma within 1 h after the consumption of the beverage. […] The duration of the lag time, which reflects the capacity of cells to buffer free radicals, was increased. […] Erythrocytes from subjects consuming flavonoid-rich cocoa show reduced susceptibility to free radical-induced hemolysis p , 0:05. Keywords: Cocoa, flavanol, membrane oxidation, erythrocyte,-catechin, 3 0 -O-methyl epicatechin Introduction Flavonoids are a diverse group of polyphenolic compounds occurring in fruit, vegetables, tea and red wine. Diets rich in these compounds have been associated with a reduced risk for cardiovascular disease (Knekt et al. 2002, Kris-Etherton et al. 2004, Mennen et al. 2004, Morton et al. 2000, Sagara et al. 2004, Sesso et al. 2003). Depending on their processing, cocoa and chocolate can be rich sources of flavonoids, particularly the subclass of oligomeric flavonoids known as procyanidins (Adamson et al. 1999, Sanchez-Rabaneda et al. 2003, Steinberg et al. 2003) (Figure 1). Flavanols and procyanidins isolated from cocoa and chocolate have received considerable attention over the last several years as potential cardiovascular protective agents with putative positive effects on platelet function, blood pressure regulation, nitric oxide production, oxidative defense and the immune system (Heiss et al. 2003, Maron, 2004; Fisher et al. 2003; Pearson et al. 2002, Sadik et al. 2003, Taubert et al. 2003, Wan et al. 2001). ISSN 1740-2522 print/ISSN 1740-2530 online q 2005 Taylor & Francis Group Ltd. DOI: 10.1080/17402520512331329514 Correspondence: Carl L. Keen, Department of Nutrition, University of California, One Shields Avenue, Davis, CA 95616-8669. Tel: 1 530 752 6331. Fax: 1 530 752 8966. E-mail: clkeen@ucdavis.edu Clinical & Developmental Immunology, March 2005; 12(1): 27-34 These compounds can modulate the actions of oxidant-responsive transcription factor NF-kB (Mackenzie et al. 2004), and diets rich in cocoa flavonoids may be associated with reductions in DNA oxidative damage (Orozco et al. 2003). […]

[1] = plasma flavanol and dimer concentrations by HPLC after cocoa beverage; type: in vivo, human; conditions: for time by which detected in the plasma: after consumption of the cocoa beverage, human subjects; for concentration in human plasma reached: after high dose of cocoa (0.50 g/kg BW)
From the text: as §1

[2] = antioxidant activity (preliminary, unpublished); conditions: preliminary work, unpublished data

Molecule	level of protection compared with ascorbic acid (human erythrocytes)	protection of human erythrocytes from free radical-induced hemolysis at lowest concentration (human erythrocytes)	protection against AAPH-induced erythrocyte hemolysis (human erythrocytes)	time by which detected in the plasma [1]	antioxidant activity compared with Dimer B2 [2]	concentration in human plasma reached [1]	protection compared with Dimer B2 (human erythrocytes; individual compounds in vitro)
COc1cc([C@H]2Oc3cc(O)cc(O)c3C[C@H]2O)ccc1O [3ʹ-O-methyl epicatechin]	exceeded that of ascorbic acid	significantly protect	dose-dependent protection	≤ 1 h			
Oc1cc(O)c2c(c1)O[C@H](c1ccc(O)c(O)c1)[C@H](O)[C@H]2c1c(O)cc2c(c1O)C[C@@H](O)[C@@H](c1ccc(O)c(O)c1)O2 [Dimer B5, epicatechin-(4b . 6)-epicatechin]					more antioxidant activity than Dimer B2		
O.Oc1cc(O)c2c(c1)O[C@H](c1ccc(O)c(O)c1)[C@@H](O)C2 [catechin]	exceeded that of ascorbic acid	significantly protect	dose-dependent protection	≤ 1 h		210 nm	
Oc1cc(O)c2c(c1)O[C@H](c1ccc(O)c(O)c1)[C@H](O)C2 [epicatechin, (-)-epicatechin]	exceeded that of ascorbic acid	significantly protect	dose-dependent protection	≤ 1 h		2860 nM	stronger protection than Dimer B2
(-)-epicatechin-(4β > 8)epicatechin [Dimer B2]	exceeded that of ascorbic acid		dose-dependent protection	≤ 1 h			
